Entries after “also recorded” stand apart in the source; their conditions may differ. Like-named read-outs stand apart in the source and are kept apart here.
Columns and labels:
LPA2 = LPA2 (Homo sapiens, UniProt Q9HBW0); test: Ca2+ transients in RH7777 cells expressing LPA2 (agonist / inhibition of LPA response); settings: for Emax: RH7777, read-out: LPA2 (Emax); for LPA2 effect in words: *transient
Procedure: (§1) The biological effects of all synthesized compounds were testing using three high-throughput assays. First, intracellular calcium transients in rat hepatoma (RH777, an LPA receptor null cell) cell lines individually expressing either LPA1, LPA2, and LPA3 receptors were analyzed to evaluate compounds as agonists or antagonists.
(§2) Synthesized compounds were tested for induction and inhibition of LPA-induced calcium transients in rat hepatoma (RH7777) cell lines that stably express individual LPA1, LPA2, and LPA3 receptors as described in the literature using a FlexStation II automated fluorimeter (Molecular Devices, Sunnyvale, Calif.).
(§3) RH7777 cells, which lack LPA GPCR, were stably transfected with individual LPA1, LPA2 and LPA3 receptors and used for the in vitro screening.

LPA1 = LPA1 (Homo sapiens, UniProt Q92633); test: Ca2+ transients in RH7777 cells expressing LPA1 (agonist / inhibition of LPA response); settings: for Emax: RH7777, read-out: LPA1 (Emax); for LPA1 effect in words: Tables 2, 4, 6; for EC50: read-out: LPA1 EC50
Procedure: as §1, §2, §3

LPA3 = target: T1, LPA3 (Homo sapiens, UniProt Q9UBY5); test: Ca2+ transients in RH7777 cells expressing LPA3 (agonist / inhibition of LPA response); settings: for EC50: read-out: LPA3 EC50; for IC50: read-out: LPA3 IC50; for LPA3 effect in words: Tables 2, 4, 6
T1 sequence (Q9UBY5 1-353): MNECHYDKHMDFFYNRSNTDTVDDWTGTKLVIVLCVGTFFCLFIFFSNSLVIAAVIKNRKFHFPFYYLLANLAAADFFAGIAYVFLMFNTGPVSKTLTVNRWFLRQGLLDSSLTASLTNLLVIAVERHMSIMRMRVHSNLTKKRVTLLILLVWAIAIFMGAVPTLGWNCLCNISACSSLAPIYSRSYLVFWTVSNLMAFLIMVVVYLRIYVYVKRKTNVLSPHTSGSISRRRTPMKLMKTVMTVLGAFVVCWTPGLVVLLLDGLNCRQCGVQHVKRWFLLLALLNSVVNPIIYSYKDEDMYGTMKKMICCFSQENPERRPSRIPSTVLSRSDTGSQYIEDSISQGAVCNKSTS
Procedure: as §1, §2, §3

[1] = read-out: LPA1 IC50, 200 nM LPA

Chain of LPA2 (Q9HBW0 whole entry, species assumed): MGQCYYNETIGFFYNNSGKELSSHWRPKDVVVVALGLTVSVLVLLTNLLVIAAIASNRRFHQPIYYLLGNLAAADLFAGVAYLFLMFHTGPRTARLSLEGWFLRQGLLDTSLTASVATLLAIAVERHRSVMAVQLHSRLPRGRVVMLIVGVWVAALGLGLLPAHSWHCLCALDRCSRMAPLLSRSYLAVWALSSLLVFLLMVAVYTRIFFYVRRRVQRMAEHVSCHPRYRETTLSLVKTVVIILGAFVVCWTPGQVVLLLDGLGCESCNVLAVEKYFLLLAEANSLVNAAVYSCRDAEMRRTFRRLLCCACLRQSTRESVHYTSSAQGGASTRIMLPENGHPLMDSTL
Chain of LPA1 (Q92633 whole entry, species assumed): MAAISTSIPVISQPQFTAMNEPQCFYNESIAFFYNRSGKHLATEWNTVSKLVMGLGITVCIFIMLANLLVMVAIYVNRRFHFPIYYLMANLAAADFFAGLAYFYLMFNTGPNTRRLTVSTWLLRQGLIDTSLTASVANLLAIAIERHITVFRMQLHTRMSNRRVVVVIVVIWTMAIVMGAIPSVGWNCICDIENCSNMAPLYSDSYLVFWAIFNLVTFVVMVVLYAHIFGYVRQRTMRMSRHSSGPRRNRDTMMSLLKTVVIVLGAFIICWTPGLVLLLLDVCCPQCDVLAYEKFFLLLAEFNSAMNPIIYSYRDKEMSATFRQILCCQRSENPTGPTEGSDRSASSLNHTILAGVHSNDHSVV

Compound `CCCCCCCC/C=C\CCCCCCC[C@@H]1OC[C@@H](COP(O)(O)=S)O1` [Analog 28] has an IC50 (LPA2) of over 30 µM and an EC50 (LPA2; LPA2 (nM) EC50, Table 1) of 1710 nM.
Compound `CCCCCCCC(=O)OCC(COP(=O)(O)O)OC(=O)CCCCCCC` (centres unmarked) [Cpd 2, phosphatidic acid 8:0, reference compound] has a Ki (LPA1) of 407 nM and an IC50 (LPA1; LPA1 IC50, Table 5) of 692 nM.
`CCCCCCCC(=O)OC[C@@H](COP(=O)(O)O)OC(=O)CCCCCCC` [Cpd 7a, (2S)-PA 8:0] was tested, and the “LPA3 agonist/antagonist activity in words” value (LPA3) was “subtype selective antagonism”, the “LPA1 agonist/antagonist activity in words” value (LPA1) was “subtype selective antagonism” and the Ki (LPA1; read-out: LPA1 (Ki), Table 5) was 221 nM. The IC50 (LPA1; read-out: LPA1 IC50, Table 5) was 433 nM and the “LPA2 agonist/antagonist activity in words” value (LPA2) was “no effect”.
With `CCCCCCCC(=O)OC[C@@H](COP(O)(O)=S)OC(=O)CCCCCCC` [Cpd 8a, thiophosphatidic acid 8:0] the “LPA3 agonist/antagonist activity in words” value (LPA3) was “partial agonist”, the Emax (LPA3; RH7777, read-out: LPA3 (Emax)) was 30% and the EC50 (LPA3; Table 5) was 115 nM. For the same compound, the “LPA1 agonist/antagonist activity in words” value (LPA1) was “lacked LPA1/3 antagonism”, the “LPA2 agonist/antagonist activity in words” value (LPA2) was “partial agonist” and the Emax (LPA2) was 17%. For the same compound, the EC50 (LPA2; read-out: LPA2 EC50, Table 5) was 7170 nM.
For `CCCCCCCC(=O)OC[C@H](COP(O)(O)=S)OC(=O)CCCCCCC` [Cpd 8b, (2R)-TPA 8:0], the “selectivity for LPA3 over LPA1” value (LPA3) was 75 fold, the IC50 (LPA3; Table 5) was 11 nM and the Ki (LPA3; read-out: LPA3 Ki) was 5 nM. For the same compound, the “LPA1 agonist/antagonist activity in words” value (LPA1) was “more potent antagonist”, the Ki (LPA1; read-out: LPA1 (Ki), Table 5) was 360 nM and the IC50 (LPA1; read-out: LPA1 IC50, Table 5) was 686 nM. The “LPA2 agonist/antagonist activity in words” value (LPA2) was “partial agonist”, the Emax (LPA2) was 58% and the EC50 (LPA2; read-out: LPA2 EC50, Table 5) was 6330 nM.
`CCCCCCCCOC[C@@H](COP(=O)(O)O)OCCCCCCCC` [Cpd 12a] gave a Ki (LPA3; read-out: LPA3 (Ki), Table 5) of 50 nM, an IC50 (LPA3; 200 nM LPA) of 143 nM and an IC50 (LPA3; Table 5) of 143 nM. The Ki (LPA1; read-out: LPA1 (Ki), Table 5) was 486 nM, the IC50 (LPA1; [1]) was 1580 nM and the IC50 (LPA1; read-out: LPA1 IC50, Table 5) was 1580 nM. For the same compound, the “LPA2 effect in words” value (LPA2) was “Weak inhibition(?) *transient”.
`CCCCCCCCOC[C@H](COP(=O)(O)O)OCCCCCCCC` [Cpd 12b, (2R)-APA 8:0] was tested, and the “LPA3 agonist/antagonist activity in words” value (LPA3) was “agonists; also recorded: Enantiospecific activation”, the Emax (LPA3; RH7777, read-out: LPA3 (Emax)) was 109% and the “LPA3 effect in words” value (LPA3) was “Full agonist”. The EC50 (LPA3) was 164 nM, the EC50 (LPA3; Table 5) was 164 nM and the “LPA1 agonist/antagonist activity in words” value (LPA1) was “agonists; also recorded: Enantiospecific activation”. For the same compound, the Emax (LPA1) was 57%, the “LPA1 effect in words” value (LPA1) was “Partial agonist” and the EC50 (LPA1) was 3260 nM. For the same compound, the EC50 (LPA1; Table 5, PA 8:0 analogs) was 3260 nM, the “LPA2 effect in words” value (LPA2) was “Partial agonist” and the EC50 (LPA2; LPA2 EC50, *transient) was 2530 nM.
`CCCCCCCCOC[C@@H](COP(O)(O)=S)OCCCCCCCC` [Cpd 13a, dialkyl thiophosphatidic acid 8:0] showed a Ki (LPA3; read-out: LPA3 (Ki), Table 5) of 67 nM, an IC50 (LPA3; 200 nM LPA) of 184 nM and an IC50 (LPA3; Table 5) of 184 nM. For the same compound, the Ki (LPA1; read-out: LPA1 (Ki), Table 5) was 139 nM, the IC50 (LPA1; [1]) was 328 nM and the IC50 (LPA1; read-out: LPA1 IC50, Table 5) was 328 nM. For the same compound, the “LPA2 effect in words” value (LPA2) was “Weak stimulation *transient”.
For `CCCCCCCCOC[C@H](COP(O)(O)=S)OCCCCCCCC` [Cpd 13b, 2(R)-ATPA 8:0], the “LPA3 agonist/antagonist activity in words” value (LPA3) was “agonists; also recorded: potent LPA3 receptor subtype-selective agonist; also recorded: full agonist”, the “selectivity for LPA3 over LPA1” value (LPA3) was about 230 fold and the “selectivity for LPA3 over LPA2” value (LPA3) was about 1900 fold. The Emax (LPA3; RH7777, read-out: LPA3 (Emax)) was 109%, the Emax (LPA3; RH7777, read-out: LPA3 Emax) was 109% and the “LPA3 effect in words” value (LPA3) was “Full agonist”. It also gave an EC50 (LPA3) of 3 nM, an EC50 (LPA3; Table 5) of 3 nM and an EC50 (LPA3; text) of 3 nM. For the same compound, the “LPA1 agonist/antagonist activity in words” value (LPA1) was “agonists; also recorded: Enantiospecific activation”, the Emax (LPA1) was 30% and the “LPA1 effect in words” value (LPA1) was “Partial agonist”. The EC50 (LPA1) was 695 nM, the EC50 (LPA1; Table 5, PA 8:0 analogs) was 695 nM and the “LPA2 agonist/antagonist activity in words” value (LPA2) was “weak and partial agonist”. For the same compound, the “LPA2 effect in words” value (LPA2) was “Partial agonist”, the EC50 (LPA2; LPA2 EC50, *transient) was 1020 nM and the Emax (LPA2) was 27%.
`CCCCCCCCNC(=O)[C@H](COP(O)(O)=S)NC(=O)CCCCCCC` [Cpd 20a] was tested, and the Ki (LPA3; read-out: LPA3 (Ki), Table 5) was 117 nM, the IC50 (LPA3; Table 5) was 251 nM and the Ki (LPA1; read-out: LPA1 (Ki), Table 5) was 152 nM. It also gave an IC50 (LPA1; read-out: LPA1 IC50, Table 5) of 476 nM.
In the case of `CCCCCCCCNC(=O)[C@@H](COP(O)(O)=S)NC(=O)CCCCCCC` [Cpd 20b], the Ki (LPA3; read-out: LPA3 (Ki), Table 5) is reported as 118 nM, the IC50 (LPA3; Table 5) is reported as 302 nM and the Ki (LPA1; read-out: LPA1 (Ki), Table 5) is reported as 2850 nM. The IC50 (LPA1; read-out: LPA1 IC50, Table 5) was 7390 nM.
`CCCCCCCCc1ccc(CCCCCCC2OCC(COP(=O)(O)O)O2)cc1` (centres unmarked) [ID 14] was tested, and the “LPA3 effect in words” value (LPA3) was “Partial agonist” and the IC50 (LPA1; [1]) was 4660 nM.
For `CCCCCCCCc1ccc(CCCCCCC2OCC(COP(O)(O)=S)O2)cc1` (centres unmarked) [ID 15], the “LPA1 effect in words” value (LPA1) was “Weak antagonist”.
`CCCCCCCC/C=C\CCCCCCCC(=O)OC[C@@H](O)COP(=O)(O)O` [Oleoyl-LPA, reference compound] was tested, and the “LPA3 agonist/antagonist activity in words” value (LPA3) was “agonist of LPA1-3”, the “LPA1 agonist/antagonist activity in words” value (LPA1) was “agonist of LPA1-3” and the “LPA2 agonist/antagonist activity in words” value (LPA2) was “agonist of LPA1-3”.
